# Laboratory results from article PMC2939063, “In Vitro and In Vivo Studies of the Trypanocidal Properties of WRR-483 against Trypanosoma cruzi” (PLoS Neglected Tropical Diseases, 2010).
# Legend:
# Assay type in all cases: biochemical
# [1] = target: T1, Papain (Carica papaya, UniProt P00784); assay: Protease inhibition profiling (Reaction Biology Corp): Papain
# T1 construct: Reaction Biology Corp (screening service)
# T1 sequence (P00784 134-345): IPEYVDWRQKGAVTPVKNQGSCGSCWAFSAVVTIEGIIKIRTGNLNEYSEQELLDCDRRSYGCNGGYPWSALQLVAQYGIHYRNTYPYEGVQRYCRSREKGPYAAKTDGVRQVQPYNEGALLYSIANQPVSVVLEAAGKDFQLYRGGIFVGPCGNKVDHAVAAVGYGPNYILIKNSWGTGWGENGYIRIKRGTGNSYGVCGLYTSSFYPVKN
# [2] = target: T2, cathepsin H (Homo sapiens, UniProt P09668); assay: Protease inhibition profiling (Reaction Biology Corp): cathepsin H; conditions: panel of 70 proteases
# T2 construct: Reaction Biology Corp (screening service)
# T2 sequence (P09668 98-335): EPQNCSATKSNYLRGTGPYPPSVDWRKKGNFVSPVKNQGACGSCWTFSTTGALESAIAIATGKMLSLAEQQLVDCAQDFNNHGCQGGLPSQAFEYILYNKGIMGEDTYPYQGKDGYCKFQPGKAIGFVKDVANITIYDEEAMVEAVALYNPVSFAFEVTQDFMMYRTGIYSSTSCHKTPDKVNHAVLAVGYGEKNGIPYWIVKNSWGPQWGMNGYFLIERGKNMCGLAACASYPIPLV
# [3] = target: T3, calpain-1 (Homo sapiens, UniProt P07384); assay: Protease inhibition profiling (Reaction Biology Corp): calpain-1; conditions: panel of 70 proteases
# T3 construct: Reaction Biology Corp (screening service)
# T3 sequence (P07384 1-714): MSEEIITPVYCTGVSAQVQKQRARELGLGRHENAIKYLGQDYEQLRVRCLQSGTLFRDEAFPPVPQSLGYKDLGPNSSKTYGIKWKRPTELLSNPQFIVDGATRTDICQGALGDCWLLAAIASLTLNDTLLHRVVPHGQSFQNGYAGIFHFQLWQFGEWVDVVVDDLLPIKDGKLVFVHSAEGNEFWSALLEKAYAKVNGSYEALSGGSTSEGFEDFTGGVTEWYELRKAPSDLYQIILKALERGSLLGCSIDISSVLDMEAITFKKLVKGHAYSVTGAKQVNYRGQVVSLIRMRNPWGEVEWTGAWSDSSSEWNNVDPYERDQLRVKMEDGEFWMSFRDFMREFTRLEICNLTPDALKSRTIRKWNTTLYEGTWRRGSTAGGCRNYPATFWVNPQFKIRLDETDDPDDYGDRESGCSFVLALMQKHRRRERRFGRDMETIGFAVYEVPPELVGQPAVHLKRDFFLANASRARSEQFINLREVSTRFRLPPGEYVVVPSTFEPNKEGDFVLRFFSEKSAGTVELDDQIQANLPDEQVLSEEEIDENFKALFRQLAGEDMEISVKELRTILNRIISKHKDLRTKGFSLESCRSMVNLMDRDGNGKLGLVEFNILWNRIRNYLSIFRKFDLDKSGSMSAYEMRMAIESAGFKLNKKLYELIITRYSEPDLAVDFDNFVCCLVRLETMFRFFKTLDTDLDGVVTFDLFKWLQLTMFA
# T3 sequence (P04632 1-268 partner): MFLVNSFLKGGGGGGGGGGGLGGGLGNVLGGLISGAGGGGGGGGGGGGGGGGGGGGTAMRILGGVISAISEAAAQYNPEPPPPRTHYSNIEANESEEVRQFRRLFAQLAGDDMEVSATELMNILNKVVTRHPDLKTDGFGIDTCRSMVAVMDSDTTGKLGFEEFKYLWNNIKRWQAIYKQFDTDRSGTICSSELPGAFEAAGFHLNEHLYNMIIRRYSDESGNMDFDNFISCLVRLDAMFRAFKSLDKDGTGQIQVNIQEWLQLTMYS
# [4] = target: T4, tbcatB (Trypanosoma brucei, UniProt Q6R7Z5); assay: tbcatB enzyme assay
# T4 construct: made in house
# T4 sequence (Q6R7Z5 23-340): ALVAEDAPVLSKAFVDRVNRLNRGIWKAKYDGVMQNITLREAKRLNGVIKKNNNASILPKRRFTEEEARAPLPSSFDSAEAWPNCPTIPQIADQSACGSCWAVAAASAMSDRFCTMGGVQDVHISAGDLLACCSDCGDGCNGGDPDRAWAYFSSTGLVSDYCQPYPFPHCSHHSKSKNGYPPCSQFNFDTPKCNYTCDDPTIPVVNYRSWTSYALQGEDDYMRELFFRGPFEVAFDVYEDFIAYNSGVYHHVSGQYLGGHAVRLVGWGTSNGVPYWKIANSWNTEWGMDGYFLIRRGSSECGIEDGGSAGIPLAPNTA
# Protocol: Cruzain[27],[28], rhodesain [29], and tbcatB [30] were recombinantly expressed as described previously. TbcatB assays were performed as described previously.[31] Cruzain (2 nM) or rhodesain (3 nM) was incubated with 0.5 to 10 µM inhibitor concentration in 100 mM sodium acetate at pH 5.5, containing 5 mM DTT (buffer A) for 5 min at room temperature. Then buffer A containing Z-Phe-Arg-AMC (Bachem, K M = 1 µM) was added to enzyme inhibitor to give 20 µM substrate concentration in 200 µL, and the increase in fluorescence (excitation at 355 nm and emission at 460 nm) was followed with an automated microtiter plate spectrofluorometer (Molecular Devices, Flex station). Inhibitor stock solutions were prepared at 20 mM in DMSO, and serial dilutions were made in DMSO (0.7% DMSO in assay). Controls were performed using enzyme alone and enzyme with DMSO. IC50 values were determined graphically using inhibitor concentrations in the linear portion of a plot of inhibition versus log[I] (seven concentrations tested with at least two in the linear range).
# Inhibitor dilutions which produce simple exponential progress curves over a wide range of k obs, were used to determine kinetic parameters. The value of k obs, the rate constant for loss of enzyme activity, was determined from an equation for pseudo first order dynamics using Prism 4.0 (GraphPad). When k obs varied linearly with inhibitor concentration, k ass was determined by linear regression analysis. If the variation was hyperbolic, indicating saturation inhibition kinetics, k inact and K i were determined from an equation describing a two-step irreversible inhibitor mechanism [k obs = k inact [I]o/([I]o+Ki* (1+[S]o/K M))] and non-linear regression analysis Prism 4.0.[32] All values were corrected for substrate concentration.
compound,measurement,setting,value
CN1CCN(C(=O)N[C@@H](CCCNC(=N)N)C(=O)N[C@H](/C=C/S(=O)(=O)c2ccccc2)CCc2ccccc2)CC1 [WRR-483],IC50,[1],373 ± 44 nM
same,inhibition of cathepsin H,[2],no inhibition
same,inhibition of calpain-1,[3],no inhibition
same,inhibition of tbcatB (in words),[4],weak inhibitors
same,inhibition at 1 µM,"[4]; read-out: tbcatB % inhibition at 1 µM, 1 µM inhibitor",26%
